# Results from EPA's ToxRefDB 2.
# Experiments:
# [1] = tested on: rat; conditions: Combined chronic toxicity/carcinogenicity, sprague dawley, Dermal, Topical, dose end: 101 week, group: systemic
# [2] = tested on: hamster; conditions: Subchronic oral toxicity in rodents, golden syrian, Feed, dose end: 90 day, group: systemic, systemic / in life observation / body weight / body weight + systemic / in life observation / body weight / body weight gain + systemic / in…
# [3] = tested on: rabbit; conditions: Prenatal developmental toxicity study, new zealand white, Oral, Gavage/Intubation, dose end: 28 GD
# [4] = tested on: rat; conditions: Subchronic oral toxicity in rodents, wistar, Feed, dose end: 90 day, group: systemic, systemic / clinical chemistry / cholesterol / cholesterol + systemic / pathology microscopic / kidney / degeneration + systemic / pathology …
# [5] = tested on: dog; conditions: Chronic toxicity, beagle, Oral, Capsule, dose end: 55 week, group: systemic
# [6] = tested on: rat; conditions: Combined chronic toxicity/carcinogenicity, wistar, Oral, Feed, dose end: 106 week, group: systemic
# [7] = tested on: dog; conditions: Subchronic oral toxicity in nonrodent, beagle, Capsule, dose end: 13 week, group: systemic, systemic / clinical chemistry / alanine aminotransferase (alt/sgpt) / alanine aminotransferase (alt/sgpt) + systemic / clinical chemistry / …
# [8] = tested on: rabbit; conditions: Prenatal developmental toxicity study, new zealand white, Oral, Gavage/Intubation, dose end: 20 GD
# [9] = tested on: rat; conditions: Prenatal developmental toxicity study, sprague dawley, Oral, Gavage/Intubation, dose end: 20 GD
# [10] = tested on: rat; conditions: Multigenerational reproductive toxicity study, wistar, Oral, Feed, dose end: 2 generation
# [11] = tested on: rat; conditions: Prenatal developmental toxicity study, sprague dawley, Oral, Gavage/Intubation, dose end: 20 GD; remark: listed apart in the source
# [12] = tested on: rat; conditions: Combined chronic toxicity/carcinogenicity, sprague dawley, Oral, Feed, dose end: 104 week, group: systemic
# [13] = systemic / pathology microscopic / mammary gland / fibroadenoma + systemic / in life observation / body weight / body weight + systemic / in…
# [14] = systemic / pathology microscopic / mammary gland / fibroadenoma + systemic / pathology microscopic / pituitary gland / acidophil adenoma + …
# [15] = group: developmental, developmental / developmental malformation / bone / incomplete ossification + developmental / developmental malformation / eye / [other] + …
# [16] = group: maternal, reproductive / reproductive performance / aborted / aborted + reproductive / reproductive performance / postimplantation loss / …
# [17] = systemic / pathology microscopic / adrenal gland / vacuolization + systemic / clinical chemistry / [other] / [other] + systemic / clinical …
# [18] = systemic / in life observation / body weight / body weight gain
# [19] = group: developmental, developmental / developmental malformation / bone / full supernumerary + developmental / developmental malformation / bone / incomplete …
# [20] = group: maternal, reproductive / reproductive performance / aborted / aborted + systemic / in life observation / body weight / body weight gain + systemic / …
# [21] = group: developmental, systemic / in life observation / body weight / fetal weight + developmental / developmental malformation / bone / absent + developmental / …
# [22] = group: maternal, reproductive / reproductive performance / implantations / implantations
# [23] = group: maternal, reproductive / offspring survival early / litter size / litter size
# [24] = group: parental, systemic / organ weight / epididymis / absolute + systemic / organ weight / epididymis / relative to body weight
# [25] = group: parental, systemic / organ weight / epididymis / absolute + systemic / organ weight / epididymis / relative to body weight + systemic / organ weight…
# [26] = group: reproductive, reproductive / reproductive performance / gestational length / gestational length + reproductive / reproductive performance / implantations…
# [27] = group: developmental, developmental / developmental malformation / bone / incomplete ossification
# [28] = group: maternal, reproductive / reproductive performance / postimplantation loss / postimplantation loss + systemic / in life observation / body weight / …
# [29] = systemic / in life observation / clinical signs / fur (altered appearance)
compound,measurement,setting,value
CC/C(=C(\c1ccc(O)cc1)c1ccc(OCCN(C)C)cc1)c1ccccc1 [4-Hydroxytamoxifen],LEL,[1]; [13],0.02 mg/kg/day
same,NEL,[1]; [13],< 0.02 mg/kg/day
same,LOAEL,[1]; [14],> 1 mg/kg/day
same,NOAEL,[1]; [14],≥ 1 mg/kg/day
CCCCOC(=O)C(C)Oc1ccc(Oc2ccc(C(F)(F)F)cn2)cc1 (stereo unspecified) [Fluazifop-butyl],LEL,[2],292 mg/kg/day
same,LOAEL,[2],292 mg/kg/day
same,NEL,[2],78.3 mg/kg/day
same,NOAEL,[2],78.3 mg/kg/day
same,LEL,[3]; [15],90 mg/kg/day
same,LOAEL,[3]; [15],90 mg/kg/day
same,NEL,[3]; [15],30 mg/kg/day
same,NOAEL,[3]; [15],30 mg/kg/day
same,LEL,[3]; [16],90 mg/kg/day
same,LOAEL,[3]; [16],90 mg/kg/day
same,NEL,[3]; [16],30 mg/kg/day
same,NOAEL,[3]; [16],30 mg/kg/day
same,LEL,[4],7.1 mg/kg/day
same,LOAEL,[4],7.1 mg/kg/day
same,NEL,[4],0.7 mg/kg/day
same,NOAEL,[4],0.7 mg/kg/day
same,NEL,[5]; [17],5 mg/kg/day
same,NOAEL,[5]; [17],5 mg/kg/day
same,LOAEL,[5]; systemic / pathology microscopic / adrenal gland / vacuolization + systemic / pathology microscopic / thymus / involution,25 mg/kg/day
same,LEL,[5]; systemic / pathology microscopic / adrenal gland / vacuolization + systemic / pathology microscopic / thymus / involution + systemic / …,25 mg/kg/day
same,LEL,[6]; [18],0.127 mg/kg/day
same,NEL,[6]; [18],< 0.127 mg/kg/day
same,LOAEL,[6]; systemic / pathology microscopic / kidney / nephropathy + systemic / in life observation / mortality / mortality,4.15 mg/kg/day
same,NOAEL,[6]; systemic / pathology microscopic / kidney / nephropathy + systemic / organ weight / kidney / absolute + systemic / organ weight / kidney / …,0.51 mg/kg/day
same,LEL,[7],250 mg/kg/day
same,LOAEL,[7],250 mg/kg/day
same,NEL,[7],25 mg/kg/day
same,NOAEL,[7],25 mg/kg/day
same,LEL,[8]; [19],50 mg/kg/day
same,LOAEL,[8]; [19],50 mg/kg/day
same,NEL,[8]; [19],10 mg/kg/day
same,NOAEL,[8]; [19],10 mg/kg/day
same,LEL,[8]; [20],50 mg/kg/day
same,LOAEL,[8]; [20],50 mg/kg/day
same,NEL,[8]; [20],10 mg/kg/day
same,NOAEL,[8]; [20],10 mg/kg/day
same,LOAEL,"[9]; group: developmental, systemic / in life observation / body weight / fetal weight",5 mg/kg/day
same,LEL,[9]; [21],5 mg/kg/day
same,NEL,[9]; [21],1 mg/kg/day
same,NOAEL,[9]; [21],1 mg/kg/day
same,LEL,[9]; [22],10 mg/kg/day
same,LOAEL,[9]; [22],> 200 mg/kg/day
same,NEL,[9]; [22],5 mg/kg/day
same,NOAEL,[9]; [22],≥ 200 mg/kg/day
same,LEL,[10]; [23],17.5 mg/kg/day
same,LOAEL,[10]; [23],17.5 mg/kg/day
same,NEL,[10]; [23],5.8 mg/kg/day
same,NOAEL,[10]; [23],5.8 mg/kg/day
same,LOAEL,"[10]; group: offspring, reproductive / offspring survival early / litter size / litter size",17.5 mg/kg/day
same,NOAEL,"[10]; group: offspring, reproductive / offspring survival early / litter size / litter size + systemic / pathology microscopic / kidney / hydronephrosis",5.8 mg/kg/day
same,LEL,"[10]; group: offspring, systemic / pathology microscopic / kidney / hydronephrosis",7.1 mg/kg/day
same,NEL,"[10]; group: offspring, systemic / pathology microscopic / kidney / hydronephrosis + developmental / offspring survival late / viability index / viability index + …",0.88 mg/kg/day
same,LEL,[10]; [24],0.74 mg/kg/day
same,NEL,[10]; [24],< 0.74 mg/kg/day
same,LOAEL,[10]; [25],5.8 mg/kg/day
same,NOAEL,[10]; [25],0.74 mg/kg/day
same,NEL,"[10]; group: reproductive, reproductive / offspring survival early / birth index / live birth index + reproductive / reproductive performance / fertility / fertility…",0.88 mg/kg/day
same,LEL,"[10]; group: reproductive, reproductive / reproductive performance / gestational length / gestational length",7.1 mg/kg/day
same,LOAEL,[10]; [26],> 21.7 mg/kg/day
same,NOAEL,[10]; [26],≥ 21.7 mg/kg/day
same,LEL,[11]; [27],10 mg/kg/day
same,LOAEL,[11]; [27],10 mg/kg/day
same,NEL,[11]; [27],< 10 mg/kg/day
same,NOAEL,[11]; [27],< 10 mg/kg/day
same,LEL,[11]; [28],200 mg/kg/day
same,LOAEL,[11]; [28],> 200 mg/kg/day
same,NEL,[11]; [28],50 mg/kg/day
same,NOAEL,[11]; [28],≥ 200 mg/kg/day
same,LEL,[12]; [29],0.1 mg/kg/day
same,NEL,[12]; [29],< 0.1 mg/kg/day
same,LOAEL,[12]; systemic / in life observation / mortality / mortality,3 mg/kg/day
same,NOAEL,[12]; systemic / in life observation / mortality / mortality + systemic / in life observation / clinical signs / fur (altered appearance) + …,1 mg/kg/day
